Reference: ChEMBL document CHEMBL1201862, “PubChem BioAssay data set” (2004)
Activity calls are given as the source filed them.

Legend:
Escherichia coli = assay: microbe, parasite or virus in culture
HEK293 [1] = assay: inhibitors of LMP1-driven NF-kB reporter, dose response, cell-based, HEK293, luciferase, cherry-pick (AID 588343); assay type: functional; conditions: Homo sapiens
[2] = target: Dual specificity tyrosine-phosphorylation-regulated kinase 1A (Rattus norvegicus, UniProt Q63470); assay type: biochemical, Homo sapiens
HEK293 [3] = assay: cells; assay type: functional, cell-based; conditions: Homo sapiens
[4] = target: Nuclear receptor subfamily 0 group B member 1 (Homo sapiens, UniProt P51843); assay: Luminescence-based cell-based high throughput dose response assay for inhibitors of the orphan nuclear receptor subfamily 0, group B, member 1 (DAX1; NR0B1). [Related pubchem assays (depositor defined):AID504766, AID504790]; assay type: functional
[5] = cytotoxicity in MIN6 insulinoma cells, dose response, cytotoxicity control, cell-based, mouse insulinoma (AID 2122); assay type: functional;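 further: confirmatory high-throughput counterscreen run to flag cytotoxic compounds; mouse MIN-6 beta cells carrying an insulin promoter eGFP reporter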
[6] = insulin promoter down-regulators in MIN6 cells, imaging, high-content screening, mouse beta cells (AID 1628); assay type: functional
[7] = cytotoxicity toward DRD oncogenic fibroblasts, dose response, cell-based, non-viral oncogenic, luminescence (AID 1934); assay type: functional; conditions: Homo sapiens
BJ [8] = assay: cytotoxicity toward BJ-TERT-LT-ST fibroblasts, dose response, cell-based, RAS-independent, luminescence (AID 1935); assay type: functional; conditions: Homo sapiens;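 further: BJ fibroblasts immortalized with TERT plus LT and ST oncogenes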
[9] = Luminescence Cell-Based Dose Retest to Confirm Inhibitors of Cancer Stem Cells. [Related pubchem assays (depositor defined):AID2717, AID2721]; assay type: functional; conditions: Homo sapiens
BJ [10] = assay: cells; assay type: functional, cell-based; conditions: Homo sapiens
BJ [11] = assay: cytotoxicity toward BJ-TERT fibroblasts, dose response, cell-based, RAS-independent, luminescence (AID 1933); assay type: functional; conditions: Homo sapiens
[12] = target: T1, Mannose-6-phosphate isomerase (Homo sapiens, UniProt P34949); assay: PMI enzyme inhibitors, confirmation, biochemical, fluorescence intensity (AID 1535)
T1 sequence (P34949 whole entry): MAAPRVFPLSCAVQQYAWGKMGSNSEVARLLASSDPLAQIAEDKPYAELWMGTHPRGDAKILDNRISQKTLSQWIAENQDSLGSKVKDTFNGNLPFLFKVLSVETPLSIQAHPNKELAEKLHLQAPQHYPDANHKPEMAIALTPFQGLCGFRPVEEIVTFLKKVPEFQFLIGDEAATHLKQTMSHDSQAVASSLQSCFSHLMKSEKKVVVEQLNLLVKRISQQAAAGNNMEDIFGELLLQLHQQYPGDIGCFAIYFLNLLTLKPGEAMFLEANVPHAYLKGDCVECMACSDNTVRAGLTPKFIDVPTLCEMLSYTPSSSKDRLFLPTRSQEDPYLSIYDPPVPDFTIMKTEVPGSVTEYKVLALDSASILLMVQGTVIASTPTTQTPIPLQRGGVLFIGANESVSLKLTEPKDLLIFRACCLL

Chain of Nuclear receptor subfamily 0 group B member 1 (P51843 whole entry): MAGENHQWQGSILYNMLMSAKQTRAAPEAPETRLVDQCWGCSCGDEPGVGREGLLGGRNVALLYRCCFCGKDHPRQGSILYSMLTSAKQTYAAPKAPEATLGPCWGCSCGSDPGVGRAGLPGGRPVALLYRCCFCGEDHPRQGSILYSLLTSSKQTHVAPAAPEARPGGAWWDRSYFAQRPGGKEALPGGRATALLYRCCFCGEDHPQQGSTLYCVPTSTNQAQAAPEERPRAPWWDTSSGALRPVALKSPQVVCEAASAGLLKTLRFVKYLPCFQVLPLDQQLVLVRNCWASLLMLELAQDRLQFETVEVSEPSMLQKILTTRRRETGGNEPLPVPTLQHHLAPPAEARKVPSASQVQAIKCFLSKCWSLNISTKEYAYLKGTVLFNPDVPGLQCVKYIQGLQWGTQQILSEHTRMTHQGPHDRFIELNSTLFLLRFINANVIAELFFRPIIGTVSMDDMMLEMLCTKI

Question: For CC(Sc1nnc(-c2ccccc2F)n1C1CC1)C(=O)NCc1ccco1 (centres undefined), which AC50 (Escherichia coli) is on record?
Answer: Its AC50 is 24.4 µM (active).

Question: With CC1=C(C(=O)OCc2ccc3c(c2)OCO3)C(c2ccccc2)NC(=O)N1 (centres undefined) as the compound, how does the AC50 (HEK293 [1]) read?
Answer: Its AC50 is 6.3 µM (active).

Question: And the AC50 [2]?
Answer: The AC50 was 0.695 µM (active).

Question: Which AC50 (Escherichia coli) does the source give for COc1cccc(C(=O)Nc2cc([N+](=O)[O-])ccc2N2CCN(C)CC2)c1 here?
Answer: Its AC50 is 25.5 µM (active).

Question: With Cc1ccc2nc(NC(=O)c3ccc(Cl)s3)sc2c1 as the compound, how does the IC50 (HEK293 [3]) read?
Answer: Its IC50 is > 67.5 µM (inactive).

Question: And the IC50 [4]?
Answer: Its IC50 is > 67.5 µM (inactive).

Question: Which results are given for O=C(CCC1CCCC1)Nc1ccc(C(=O)NCc2cccnc2)cc1?
Answer: IC50 [5]: > 16 µM (inactive); IC50 [6]: 0.331 µM (active); EC50 [7]: > 150 µM (not active); EC50 (BJ [8]): 1.53 µM (inconclusive); AC50 [9]: 0.882 µM (active); EC50 (BJ [10]): 0.672 µM (inconclusive); EC50 (BJ [11]): > 150 µM (not active)

Question: For Clc1nss/c1=N\c1ncccn1, which IC50 [12] is on record?
Answer: The IC50 was > 100 µM (inactive).
